In the OPERA property sets (Mansouri et al. 2018):

Going from `COc1cc(C(=O)Nc2ccc3nn(C)nc3c2)cc(OC)c1OC` to `COc1cc(C(=O)Nc2ccc3nn(C4CCCCC4)nc3c2)cc(OC)c1OC`, the logP rises from 2.38 to 4.45.

Going from `O=C(Nc1ccc2nn(C3CCCCC3)nc2c1)c1ccc(Cl)c(Cl)c1` to `O=C(Nc1ccc2nn(C3CCCCC3)nc2c1)c1ccccc1`, the logP falls from 5.85 to 4.45.

Going from `COc1ccc(C(=O)Nc2ccc3nn(C4CCCC4)nc3c2)cc1` to `O=C(Nc1ccc2nn(C3CCCCC3)nc2c1)c1ccc([N+](=O)[O-])cc1`, the logP rises from 4.03 to 4.57.

Compared with `O=C(Nc1ccc2nn(C3CCCCC3)nc2c1)C(Cl)Cl`, `Cn1nc2ccc(NC(=O)CCl)cc2n1` is lower in logP: 3.87 for the first, 1.22 for the second.

Compared with `Cn1nc2ccc(NC(=O)c3ccc(Cl)cc3)cc2n1`, `Cn1nc2ccc(NC(=O)c3ccc([N+](=O)[O-])cc3)cc2n1` is lower in logP: 3.13 for the first, 2.53 for the second.

`Cn1nc2ccc(NC(=O)c3ccccc3)cc2n1` showed a logP of 2.44.
